Assay results reported in patent publication US10471054B2, “CDK1 inhibitors of acetyl chrysin mannich base derivatives, synthesis and use thereof” (priority 2016, dated 2019).
Converted amounts (≈) assume the structure as drawn. Like-named read-outs stand apart in the source and are kept apart here.

What was measured:
[1] = test system: 5 cancers cells (MCF-7, H-460, BGC-823, PC-3, Hep G2); assay: Anti-cancer cells proliferation activity, average of 5 cancer cells; assay type: cell-based; conditions: for IC50: average of 5 cancer cells
Text: (§1) Anti-cancer cells proliferationactivity of in vitro CH-j and CH-f were shown in TABLE 2 for the results of the screening of 5 cancers cells.

[2] = Tissue distribution in rat, 2 h; assay type: in vivo; conditions: rat
Experimental: The distribution results of CH-j tissue distribution were shown in FIG. 6, when CH-j 100 mg/kg rat by venous intravenous (i.v.) or oral (p.o.) 2 h. […] CH-j by oral in the stomach concentration of the large, about 2 time higher than other tissues. […] Compared with the intravenous administration, the oral administration was completely absorbed and the bioavailability was close to 100%.
FIG. 6: 2 h distribution of the drug (100 mg/kg) by CH-j rats: Y-coordinate is the concentration of CH-j (μg/g), by intravenous (i.v.), by oral (p.o.).

[3] = BA-j, see Fitoterapia, 2015; cited from earlier work
plasma proteins = assay: Protein binding rate and reversible binding rate; assay type: in vitro ADME
Experimental: (§2) The combination of drugs and plasma proteins is usually reversible, and the affinity strength is determined by the reversible binding rate of the drug-protein complex. Only free drugs can spread to the tissue through the lipid membrane. By modifying the structure of the drug, the effect of the drug on the target site can be improved by improving the reversible binding rate of the drug-protein complex.
(§3) The acidic part of polyphenol hydroxyl group is combined with lysine alkaline site in albumin structure. The protein binding rate and reversible binding rate of CH-j see TABLE 2.

[4] = Protein binding rate and reversible binding rate; assay type: in vitro ADME; conditions: plasma proteins
Experimental: as §2, §3

CDK1 = CDK1 (Homo sapiens, UniProt P06493); assay: CDK1 inhibition activity; assay type: biochemical; conditions: for CDK1 50% inhibitory concentration: read-out: inhibiting CDK1 CC50
[5] = Solubility in Octanol, water and pH media; assay type: physicochemical
Experimental: (§4) The solubility and log P of acetyl ChrysinMannich base derivatives see TABLE 1.
(§5) CH-j is pKa 5.3, log P 1.63 in Octanol/Water at 37° C. […] (BA-j 77m/ml). CH-j belongs to BCS II (low solubility, high permeability) and solubility presents the pH dependence. […] CH-j is a pH dependent fast release. […] It is speculated that CH-j has more appropriate log P and solubility with more likely entering tissue cells than others solubility acetyl Chrysin Mannich base derivatives.
(§6) (about 20 times BA-f 277 μg/ml) and 564 μg/ml in water at 37° C. (about 1000 times BA-f 0.53m/ml). CH-f is BCS I (high solubility and permeability) and solubility presents the pH dependence. It is speculated that CH-f has more appropriate log P and solubility with entering systemic (blood system and tissue cells) than others solubility acetyl Chrysin Mannich base derivatives.

pKa = assay type: physicochemical
Experimental: as §5, §6

[6] = test system: PBMCs, activated lymphocytes, human normal Liver cells; assay: H2O2 level in blood and normal cells, PF1-H2O2 fluorescent probe; assay type: cell-based; conditions: CH-j: PBMCs and activated lymphocytes; BA-j: activated lymphocyte
Experimental: The cells are cancer cells (MCF-7, GBC-823, Hep G2) and normal cells (Liver, COS-7, PBMCs). According to the literature [Scientific Reports, 2015, 5: 13626; Anti-cancer Agents in Medicinal Chemistry, 2016, 16: 914-924.], in vitro cultured cells was given to CH-j 25 μM for 3.5 h, added PF1-H2O2 selective fluorescence probe 10 μM for 0.5 h and detected the concentration of H2O2 in cells, and performed fluorescence imaging by results shown in FIG. 1.
FIG. 1-3, FIG. 1-4, The fluorescence imaging by PF1-H2O2 10 μM is that CH-j […] for 4 h affected the level of H2O2 in MCF-7, GBC-823, Hep G2 and Liver.
FIG. 1-3: CH-j/BA-j affects the levels of H2O2 in blood cells, X-coordinate is the concentration of CH-j/BA-j concentration (μM), and Y-coordinate the intracellular levels of H2O2 (μM) for 4 h with PF1-H2O2 10 μM by Fluorescence Microplater Reader (488 nm/525 nm).

PC-3 = assay: Anti-cancer cells proliferation activity (MTT, 48 h); assay type: cell-based; conditions: Homo sapiens, PC-3, MTT
Text: as §1

Hep G2 = assay: as above; assay type: cell-based; conditions: Homo sapiens, HepG2
Text: as §1

H-460 = assay: as above; assay type: cell-based; conditions: Homo sapiens, NCI-H460, H-460, MTT
Text: as §1

MCF-7 [7] = assay: as above; assay type: cell-based; conditions: Homo sapiens, MCF7, MCF-7, MTT
Text: as §1

log P in Octanol/Water = assay type: physicochemical; conditions: octanol/water, Octanol/Water at 37° C.
Experimental: as §4, §5, §6

[8] = Pharmacokinetics by oral in monkey (urine drug concentration-time curve); assay type: in vivo; conditions: rhesus, monkey (n = 6), 3 mg/kg
[9] = oral, liver first pass effect; cited from earlier work
BGC-823 = assay: Anti-cancer cells proliferation activity (MTT, 48 h); assay type: cell-based; conditions: Homo sapiens, BGC-823, MTT
Experimental: as §1
FIG. 2: The initial screening results of the anticancer activity of BGC-823 (MTT, for 48 h), and X-coordinate is the drug concentration (MTT, for 48 h), and Y-coordinate the cell survival rate (%) in vitro.

[10] = Pharmacokinetics by oral in monkey (urine drug concentration-time curve); assay type: in vivo; conditions: monkey (n = 6), 3 mg/kg in Table 4, 5 mg/kg in text
Experimental: Chromatographic conditions and the system applies: with C18 chromatographic column (acid the tall secretory effect, 5 μm, 4.6*150 mm), in acetonitrile-methanol-water-mesylate (25:20:55:0.15) as mobile phase, detection UV 283 nm, the velocity 1 ml/min, and the sample volume 20 μl. The theoretical plate number is not less than 2000 according to CH-j peak.
Sample solution: after the macaques were drugged, the catheter was inserted. The urine by oral CH-j 5 mg/kg is collected, added the methanol at 1:4 (v:v), centrifuge and remove the liquid to measure. Control solution is CH-j methanol solution 5 μg/ml. The log P of CH-j is larger, the fat solubility strong, and absorption distribution in the body very rapid, the urine drug concentration-time curve consistent with the typical two-compartment model. Tmax1, 1.3 h, Cmax1 is […]. […] The apparent distribution volume (Vd) 42 L, mainly distributed in body fluid (BA-j Vd 12.6 L, mainly distributed in blood. See Fitoterapia, 2015, 107: 36-34)
FIG. 5: The concentration of urine drug concentration-time curve in monkey (n=6) by CH-j oral 5 mg/kg, X-coordinate is oral CH-j time (h) and Y-coordinate is the concentration of CH-j (μM).

MCF-7 [11] = assay: Autophagy in MCF-7; assay type: cell-based; conditions: 50 μM for 9 h and 24 h
MCF-7 and COS-7 = assay: NO level, Rh-NO fluorescent probe imaging; assay type: cell-based; conditions: 25 μM for 12, 24, 48 h, Rh-NO probe 5 μM
Experimental: [Organic Letters, 2008, 10: 2357-2360] […] This is because of cycloalkylamine-methyl releasing NO by Cope reaction, and the higher level of NO 4-methylpiperazine than 4-hydroxypiperidine.
FIG. 1-6: The performed fluorescence imaging with Rh—NO 5 μM, and add 25 μM of CH-j and CH-f for 12, 24, 48 h, affected the level of NO for 12, 24 and 48 h in MCF-7 and COS-7 by Single beam electron confocal fluorescence microscope (488/604 nm).

MCF-7 [12] = assay: Hoechst 33258 fluorescence staining, apoptosis; assay type: cell-based; conditions: 0, 5, 10, 20 μM for 24 h
Experimental: Hoechst 33258 is an active fluorescent dye with DNA specific binding, which is mainly combined with base area of DNA, which emits blue fluorescence when stimulated by ultraviolet light. The living cells emit uniform fluorescence, the apoptotic cells are bright blue fluorescence due to their chromatin fixation, dense and concentrated nuclei.
MCF-7 was treated with 0, 5, 10, 20 μM of CH-f and CH-j for 24 h, Hoechst 33258 fluorescence staining, and cell morphological changes were shown in FIG. 3-1. […] CH-f and CH-j are completely different from the cytotoxic drug HCPT, which appears to be apoptotic at low doses and necrotic at high doses in BGC-823.
FIG. 3-1 Hoechst 33258 staining results for MCF-7.

Bcl-2 = Bcl-2 expression in MCF-7; assay type: cell-based; conditions: 10 μM for 24 h
[13] = in vivo; cited from earlier work
[14] = organic solvent or mixture, Octanol, 37° C., read-out: Solubility in Octanol

CDK1, sequence (P06493 whole entry, species assumed): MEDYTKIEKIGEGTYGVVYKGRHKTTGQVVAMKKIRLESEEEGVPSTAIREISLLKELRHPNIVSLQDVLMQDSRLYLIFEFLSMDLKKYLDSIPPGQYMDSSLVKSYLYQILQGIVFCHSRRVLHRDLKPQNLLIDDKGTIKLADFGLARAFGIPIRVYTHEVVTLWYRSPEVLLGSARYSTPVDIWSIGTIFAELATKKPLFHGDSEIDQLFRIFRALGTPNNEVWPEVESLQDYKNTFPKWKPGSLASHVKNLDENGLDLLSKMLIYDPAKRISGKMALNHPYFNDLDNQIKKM
CDK1, sequence (P14635 whole entry partner, species assumed): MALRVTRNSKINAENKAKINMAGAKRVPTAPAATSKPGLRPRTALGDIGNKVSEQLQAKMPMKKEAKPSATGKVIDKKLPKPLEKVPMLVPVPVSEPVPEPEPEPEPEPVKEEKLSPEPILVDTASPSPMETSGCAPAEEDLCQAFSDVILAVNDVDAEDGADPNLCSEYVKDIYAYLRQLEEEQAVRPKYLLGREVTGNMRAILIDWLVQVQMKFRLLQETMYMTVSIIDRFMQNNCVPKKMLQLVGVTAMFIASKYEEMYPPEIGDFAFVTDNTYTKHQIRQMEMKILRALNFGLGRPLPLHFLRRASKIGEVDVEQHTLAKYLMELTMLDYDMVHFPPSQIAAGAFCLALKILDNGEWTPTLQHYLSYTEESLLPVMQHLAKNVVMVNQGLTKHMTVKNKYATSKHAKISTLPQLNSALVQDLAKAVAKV

Compound: O=c1cc(-c2ccccc2)oc2c(CN3CCC(O)CC3)c(O)c(O)c(O)c12 [BA-j, 5,6,7-trihydroxy-8-(4-hydroxy-piperidin-1-ylmethyl)-2-phenyl-chromen-4-one, reference compound]
- IC50 [1]: 4.7 µg/mL
- IC50 ([1]; MTT, 48 h): 12.3 µM
- Detection of prototype drug in blood, urine, tissues [2]: prototype drug can not be detected in the tissues
- V d [3]: 12.6 L
- Reversie binding rate AV (plasma proteins; average of 3 concentrations): 20.1%
- Reversie binding rate (plasma proteins; drug concentration 12.5 μg/ml): 19.1%
- Reversie binding rate (plasma proteins; drug concentration 25 μg/ml): 21.0%
- Reversie binding rate (plasma proteins; drug concentration 50 μg/ml): 20.2%
- fraction unbound ([4]; average of 3 concentrations, read-out: Protein binding rate AV (converted)): 0.082
- fraction unbound at 12.5 μg/ml ([4]; drug concentration 12.5 μg/ml): 0.067
- fraction unbound at 25 μg/ml ([4]; drug concentration 25 μg/ml): 0.075
- fraction unbound at 50 μg/ml ([4]; drug concentration 50 μg/ml): 0.104
- CDK1 50% inhibitory concentration (CDK1): 300 nM
- solubility [5, 14]: 377 µg/mL (≈ 983 µM)
- solubility ([5]; water, 37° C., text values of BA-j and BA-f, read-out: Solubility in water): 77 µg/mL (≈ 201 µM)
- pKa (pKa): 5.5
- Dose dependence of H2O2 level [6]: significant dose-dependent manner, with mass apoptosis and without necrosis
- IC50 (PC-3): 12.8 ± 2.06 µM
- IC50 (Hep G2): 15.7 ± 1.3 µM
- IC50 (H-460): 13.7 ± 1.83 µM
- IC50 (MCF-7 [7]): 10.6 ± 0.3 µM
- logP (log P in Octanol/Water): 0.69
- AUC(0-inf) [8]: 71.5 µM·h
- Glucose aldehyde acid metabolism [9]: < 5%
- IC50 (BGC-823): 12.3 ± 1.73 µM
- V d ([10]; oral): 12.6 L
- t1/2β ([10]; oral): 4.2 h
- Tmax ([10]; rhesus, monkey, urine, po, read-out: T max (Tmax1)): 2 h
- Cmax ([10]; rhesus, urine, oral): 25.4 µM
- Autophagy (MCF-7 [11]): without

Compound: CC(=O)c1c(O)c(CN2CCN(C)CC2)c2oc(-c3ccccc3)cc(=O)c2c1O [CH-f, 6-Acetyl-5,7-dihydroxy-8-(4-methylpiperazin-1-ylmethyl)-2-phenyl-chromen-4-one]
- Anti-proliferative activity, times stronger than BA-j [1]: 2 times
- Anti-proliferative activity, times stronger than Chrysin [1]: 5 times
- IC50 [1]: 2.3 µg/mL
- IC50 ([1]; MTT, 48 h): 5.6 µM
- CDK1 inhibition, times stronger than BA-j (CDK1): about 2 times
- CDK1 50% inhibitory concentration (CDK1): 130 nM
- BCS class [5]: BCS I
- Solubility in water relative to BA-f ([5]; 37° C.): about 1000 times
- Solubility in Octanol relative to BA analogue ([5]; CH-j vs BA-j, CH-f vs BA-f, 37° C.): about 20 times
- solubility [5, 14]: 5510 µg/mL (≈ 13500 µM)
- solubility ([5]; water, 37° C., read-out: Solubility in H2O): 564 µg/mL (≈ 1380 µM)
- pKa (pKa): 4.9
- IC50 (PC-3): 5.1 ± 1.17 µM
- IC50 (Hep G2): 6.1 ± 1.45 µM
- IC50 (H-460): 5.6 ± 1.33 µM
- IC50 (MCF-7 [7]): 5.2 ± 1.24 µM
- logP (log P in Octanol/Water): 0.99
- Level of NO, red fluorescence (MCF-7 and COS-7): stronger red fluorescence than CH-j in MCF-7
- Apoptosis by Hoechst 33258 staining (MCF-7 [12]): apoptosis cell percentage in dose dependent increase
- IC50 (BGC-823): 5.2 ± 1.21 µM
- Autophagy (MCF-7 [11]): can cause autophagy
- Bcl-2 expression (Bcl-2): Bcl-2 expression can be suppressed

Compound: CN1CC[C@H](c2c(O)cc(O)c3c(=O)cc(-c4ccccc4Cl)oc23)[C@H](O)C1 [Flavopiridol]
- Intravenous drip steady plasma concentration [13]: 0.27 µM
